What was measured:
[1] = molecular target: Tyrosine-protein kinase BTK (Homo sapiens, UniProt Q06187); experiment: Inhibition of BTK (unknown origin) incubated for 1 hr by spectrophotometric analysis
[2] = molecular target: cAMP-dependent protein kinase catalytic subunit alpha (Homo sapiens, UniProt P17612); experiment: Inhibition of PKACalpha (unknown origin) incubated for 1 hr by spectrophotometric analysis
[3] = Cytotoxicity against human MKN45 cells assessed as reduction in cell survival incubated for 3 days by cell titre-glo assay; type: functional, cell-based; details: MKN-45, 72 h
[4] = molecular target: Tyrosine-protein kinase ABL2 (Homo sapiens, UniProt P42684); experiment: Inhibition of ARG (unknown origin) incubated for 1 hr by spectrophotometric analysis
[5] = molecular target: Platelet-derived growth factor receptor beta (Homo sapiens, UniProt P09619); experiment: Inhibition of PDGFRbeta (unknown origin) incubated for 1 hr by spectrophotometric analysis
[6] = molecular target: Tyrosine-protein kinase SYK (Homo sapiens, UniProt P43405); experiment: Inhibition of SYK (unknown origin) incubated for 1 hr by spectrophotometric analysis
[7] = molecular target: Proto-oncogene tyrosine-protein kinase receptor Ret (Homo sapiens, UniProt P07949); experiment: Inhibition of RET (unknown origin) incubated for 1 hr by spectrophotometric analysis
[8] = molecular target: Tyrosine-protein kinase receptor UFO (Homo sapiens, UniProt P30530); experiment: Inhibition of AXL (unknown origin) incubated for 1 hr by spectrophotometric analysis
[9] = molecular target: Epidermal growth factor receptor (Homo sapiens, UniProt P00533, T790M); experiment: Inhibition of EGFR T790M mutant (unknown origin) incubated for 1 hr by spectrophotometric analysis; type: protein assay
[10] = molecular target: Insulin receptor (Homo sapiens, UniProt P06213); experiment: Inhibition of INSR (unknown origin) incubated for 1 hr by spectrophotometric analysis
[11] = molecular target: Non-receptor tyrosine-protein kinase TYK2 (Homo sapiens, UniProt P29597); experiment: Inhibition of TYK2 (unknown origin) incubated for 1 hr by spectrophotometric analysis
[12] = molecular target: Tyrosine-protein kinase Yes (Homo sapiens, UniProt P07947); experiment: Inhibition of YES (unknown origin) incubated for 1 hr by spectrophotometric analysis
[13] = molecular target: Leukocyte tyrosine kinase receptor (Homo sapiens, UniProt P29376); experiment: Inhibition of LTK (unknown origin) incubated for 1 hr by spectrophotometric analysis
[14] = molecular target: Angiopoietin-1 receptor (Homo sapiens, UniProt Q02763); experiment: Inhibition of TIE2 (unknown origin) incubated for 1 hr by spectrophotometric analysis
[15] = molecular target: Protein kinase C zeta type (Homo sapiens, UniProt Q05513); experiment: Inhibition of PKCzeta (unknown origin) incubated for 1 hr by spectrophotometric analysis
[16] = molecular target: RAC-alpha serine/threonine-protein kinase (Homo sapiens, UniProt P31749); experiment: Inhibition of AKT1 (unknown origin) incubated for 1 hr by spectrophotometric analysis
[17] = molecular target: Serine/threonine-protein kinase N2 (Homo sapiens, UniProt Q16513); experiment: Inhibition of PKN2 (unknown origin) incubated for 1 hr by spectrophotometric analysis
[18] = molecular target: Epidermal growth factor receptor (Homo sapiens, UniProt P00533, L858R); experiment: Inhibition of EGFR L858R mutant (unknown origin) incubated for 1 hr by spectrophotometric analysis; type: protein assay
[19] = molecular target: Cyclin-dependent kinase 2 (Homo sapiens, UniProt P24941); experiment: Inhibition of CDK2 (unknown origin) incubated for 1 hr by spectrophotometric analysis
[20] = tested on: NCI-H1975; experiment: Cytotoxicity against human NCI-H1975 cells assessed as reduction in cell survival incubated for 3 days by cell titre-glo assay; type: functional, cell-based; details: NCI-H1975, 72 h
[21] = molecular target: Aurora kinase A (Homo sapiens, UniProt O14965); experiment: Inhibition of Aurora A (unknown origin) incubated for 1 hr by spectrophotometric analysis
[22] = molecular target: Tyrosine-protein kinase Lck (Homo sapiens, UniProt P06239); experiment: Inhibition of LCK (unknown origin) incubated for 1 hr by spectrophotometric analysis
[23] = molecular target: Fibroblast growth factor receptor 3 (Homo sapiens, UniProt P22607); experiment: Inhibition of FGFR3 (unknown origin) incubated for 1 hr by spectrophotometric analysis
[24] = tested on: NCI-H1993; experiment: Cytotoxicity against human NCI-H1993 cells assessed as reduction in cell survival incubated for 3 days by cell titre-glo assay; type: functional, cell-based; details: NCI-H1993, 72 h
[25] = Cytotoxicity against human MHCC97H cells assessed as reduction in cell survival incubated for 3 days by cell titre-glo assay; type: functional, cell-based; details: 72 h
[26] = molecular target: Ephrin type-B receptor 1 (Homo sapiens, UniProt P54762); experiment: Inhibition of EPHB1 (unknown origin) incubated for 1 hr by spectrophotometric analysis
[27] = molecular target: Tyrosine-protein kinase ABL1 (Homo sapiens, UniProt P00519); experiment: Inhibition of ABL (unknown origin) incubated for 1 hr by spectrophotometric analysis
[28] = molecular target: Proto-oncogene tyrosine-protein kinase Src (Homo sapiens, UniProt P12931); experiment: Inhibition of SRC (unknown origin) incubated for 1 hr by spectrophotometric analysis

Leukocyte tyrosine kinase receptor, sequence (P29376 whole entry): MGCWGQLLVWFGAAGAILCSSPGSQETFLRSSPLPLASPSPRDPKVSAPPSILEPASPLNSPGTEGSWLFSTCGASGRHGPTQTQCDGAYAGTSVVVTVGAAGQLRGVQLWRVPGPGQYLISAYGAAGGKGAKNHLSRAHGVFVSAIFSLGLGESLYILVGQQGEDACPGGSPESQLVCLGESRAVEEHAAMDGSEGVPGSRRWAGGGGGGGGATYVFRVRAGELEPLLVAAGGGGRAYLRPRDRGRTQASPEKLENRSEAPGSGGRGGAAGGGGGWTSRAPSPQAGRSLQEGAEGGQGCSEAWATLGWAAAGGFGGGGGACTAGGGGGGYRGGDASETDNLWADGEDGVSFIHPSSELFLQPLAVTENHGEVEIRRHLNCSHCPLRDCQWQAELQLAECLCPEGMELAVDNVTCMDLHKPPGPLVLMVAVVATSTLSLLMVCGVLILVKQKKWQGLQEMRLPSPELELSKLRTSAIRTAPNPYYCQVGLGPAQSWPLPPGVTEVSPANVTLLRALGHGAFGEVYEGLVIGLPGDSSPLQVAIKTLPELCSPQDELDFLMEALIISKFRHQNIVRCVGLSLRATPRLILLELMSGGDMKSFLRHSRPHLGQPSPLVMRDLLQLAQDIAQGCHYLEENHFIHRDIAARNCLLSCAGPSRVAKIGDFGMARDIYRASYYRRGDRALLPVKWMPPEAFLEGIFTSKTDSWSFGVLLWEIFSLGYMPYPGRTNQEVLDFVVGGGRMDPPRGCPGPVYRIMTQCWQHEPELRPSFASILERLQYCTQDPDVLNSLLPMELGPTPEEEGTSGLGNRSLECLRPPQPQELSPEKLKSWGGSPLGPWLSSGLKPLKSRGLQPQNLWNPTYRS
Tyrosine-protein kinase ABL2, sequence (P42684 whole entry): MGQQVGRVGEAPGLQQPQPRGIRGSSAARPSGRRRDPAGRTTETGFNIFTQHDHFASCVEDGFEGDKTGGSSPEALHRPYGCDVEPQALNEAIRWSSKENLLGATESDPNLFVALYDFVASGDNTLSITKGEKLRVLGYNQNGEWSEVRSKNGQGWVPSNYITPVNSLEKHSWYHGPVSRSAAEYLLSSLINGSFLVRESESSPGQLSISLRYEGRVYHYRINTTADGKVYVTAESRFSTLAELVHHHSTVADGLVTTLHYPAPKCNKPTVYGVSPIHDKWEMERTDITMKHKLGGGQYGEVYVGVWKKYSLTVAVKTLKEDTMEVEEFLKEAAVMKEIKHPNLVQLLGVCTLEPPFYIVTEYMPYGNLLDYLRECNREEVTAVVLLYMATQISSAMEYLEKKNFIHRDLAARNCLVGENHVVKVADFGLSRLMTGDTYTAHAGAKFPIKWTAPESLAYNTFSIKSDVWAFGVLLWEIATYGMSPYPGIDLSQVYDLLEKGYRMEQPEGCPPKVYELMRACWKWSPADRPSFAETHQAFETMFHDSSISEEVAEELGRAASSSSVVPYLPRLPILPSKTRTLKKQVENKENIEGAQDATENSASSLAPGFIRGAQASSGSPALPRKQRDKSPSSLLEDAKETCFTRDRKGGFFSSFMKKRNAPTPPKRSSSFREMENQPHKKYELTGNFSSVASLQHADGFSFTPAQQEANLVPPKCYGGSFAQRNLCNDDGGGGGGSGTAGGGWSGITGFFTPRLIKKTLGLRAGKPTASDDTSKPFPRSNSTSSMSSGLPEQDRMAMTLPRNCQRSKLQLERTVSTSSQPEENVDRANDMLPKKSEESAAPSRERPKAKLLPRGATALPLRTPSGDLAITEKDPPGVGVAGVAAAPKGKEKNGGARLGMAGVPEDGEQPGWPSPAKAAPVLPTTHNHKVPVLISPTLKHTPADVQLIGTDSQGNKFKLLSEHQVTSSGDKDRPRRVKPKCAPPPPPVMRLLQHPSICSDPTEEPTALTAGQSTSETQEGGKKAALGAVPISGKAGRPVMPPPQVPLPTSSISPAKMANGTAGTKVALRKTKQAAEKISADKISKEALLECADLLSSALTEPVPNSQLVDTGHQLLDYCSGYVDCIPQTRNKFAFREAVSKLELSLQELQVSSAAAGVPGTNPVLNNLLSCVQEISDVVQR
RAC-alpha serine/threonine-protein kinase, sequence (P31749 whole entry): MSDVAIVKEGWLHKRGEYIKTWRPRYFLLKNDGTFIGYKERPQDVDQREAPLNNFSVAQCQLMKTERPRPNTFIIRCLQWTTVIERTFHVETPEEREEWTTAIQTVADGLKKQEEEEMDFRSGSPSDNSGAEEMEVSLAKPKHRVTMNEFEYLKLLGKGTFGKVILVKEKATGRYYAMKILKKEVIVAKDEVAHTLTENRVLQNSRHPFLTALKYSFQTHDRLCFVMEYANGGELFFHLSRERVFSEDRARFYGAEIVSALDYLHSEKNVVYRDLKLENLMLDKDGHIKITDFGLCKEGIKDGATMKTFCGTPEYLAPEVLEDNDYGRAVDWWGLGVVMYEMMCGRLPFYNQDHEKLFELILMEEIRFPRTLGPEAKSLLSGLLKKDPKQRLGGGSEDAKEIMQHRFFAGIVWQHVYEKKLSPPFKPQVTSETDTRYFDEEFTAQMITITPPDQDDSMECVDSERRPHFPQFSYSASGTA
Ephrin type-B receptor 1, sequence (P54762 whole entry): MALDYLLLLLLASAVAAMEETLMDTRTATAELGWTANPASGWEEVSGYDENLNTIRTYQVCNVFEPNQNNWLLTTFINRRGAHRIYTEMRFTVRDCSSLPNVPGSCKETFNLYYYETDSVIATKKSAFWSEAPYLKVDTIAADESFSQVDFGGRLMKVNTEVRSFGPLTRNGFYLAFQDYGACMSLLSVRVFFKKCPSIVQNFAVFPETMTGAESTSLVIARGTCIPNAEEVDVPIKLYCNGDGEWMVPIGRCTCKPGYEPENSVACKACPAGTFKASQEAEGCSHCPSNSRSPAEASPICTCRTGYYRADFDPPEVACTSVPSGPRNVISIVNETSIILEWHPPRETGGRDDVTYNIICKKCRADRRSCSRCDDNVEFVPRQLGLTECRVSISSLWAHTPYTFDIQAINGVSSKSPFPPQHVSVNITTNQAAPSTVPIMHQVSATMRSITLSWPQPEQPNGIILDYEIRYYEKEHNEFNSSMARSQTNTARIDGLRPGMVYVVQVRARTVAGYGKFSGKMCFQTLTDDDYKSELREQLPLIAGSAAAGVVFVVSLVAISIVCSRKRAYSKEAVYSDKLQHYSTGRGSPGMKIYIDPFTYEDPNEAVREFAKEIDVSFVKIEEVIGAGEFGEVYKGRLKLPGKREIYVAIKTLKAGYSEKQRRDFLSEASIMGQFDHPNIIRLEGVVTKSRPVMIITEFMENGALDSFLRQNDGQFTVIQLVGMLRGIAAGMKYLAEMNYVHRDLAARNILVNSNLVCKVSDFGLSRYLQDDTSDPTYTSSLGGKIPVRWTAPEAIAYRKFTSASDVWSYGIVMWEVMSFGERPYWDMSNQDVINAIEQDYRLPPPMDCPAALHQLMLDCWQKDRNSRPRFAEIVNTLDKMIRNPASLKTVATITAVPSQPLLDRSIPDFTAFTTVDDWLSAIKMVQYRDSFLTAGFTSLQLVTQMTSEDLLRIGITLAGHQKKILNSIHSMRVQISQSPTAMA
Angiopoietin-1 receptor, sequence (Q02763 whole entry): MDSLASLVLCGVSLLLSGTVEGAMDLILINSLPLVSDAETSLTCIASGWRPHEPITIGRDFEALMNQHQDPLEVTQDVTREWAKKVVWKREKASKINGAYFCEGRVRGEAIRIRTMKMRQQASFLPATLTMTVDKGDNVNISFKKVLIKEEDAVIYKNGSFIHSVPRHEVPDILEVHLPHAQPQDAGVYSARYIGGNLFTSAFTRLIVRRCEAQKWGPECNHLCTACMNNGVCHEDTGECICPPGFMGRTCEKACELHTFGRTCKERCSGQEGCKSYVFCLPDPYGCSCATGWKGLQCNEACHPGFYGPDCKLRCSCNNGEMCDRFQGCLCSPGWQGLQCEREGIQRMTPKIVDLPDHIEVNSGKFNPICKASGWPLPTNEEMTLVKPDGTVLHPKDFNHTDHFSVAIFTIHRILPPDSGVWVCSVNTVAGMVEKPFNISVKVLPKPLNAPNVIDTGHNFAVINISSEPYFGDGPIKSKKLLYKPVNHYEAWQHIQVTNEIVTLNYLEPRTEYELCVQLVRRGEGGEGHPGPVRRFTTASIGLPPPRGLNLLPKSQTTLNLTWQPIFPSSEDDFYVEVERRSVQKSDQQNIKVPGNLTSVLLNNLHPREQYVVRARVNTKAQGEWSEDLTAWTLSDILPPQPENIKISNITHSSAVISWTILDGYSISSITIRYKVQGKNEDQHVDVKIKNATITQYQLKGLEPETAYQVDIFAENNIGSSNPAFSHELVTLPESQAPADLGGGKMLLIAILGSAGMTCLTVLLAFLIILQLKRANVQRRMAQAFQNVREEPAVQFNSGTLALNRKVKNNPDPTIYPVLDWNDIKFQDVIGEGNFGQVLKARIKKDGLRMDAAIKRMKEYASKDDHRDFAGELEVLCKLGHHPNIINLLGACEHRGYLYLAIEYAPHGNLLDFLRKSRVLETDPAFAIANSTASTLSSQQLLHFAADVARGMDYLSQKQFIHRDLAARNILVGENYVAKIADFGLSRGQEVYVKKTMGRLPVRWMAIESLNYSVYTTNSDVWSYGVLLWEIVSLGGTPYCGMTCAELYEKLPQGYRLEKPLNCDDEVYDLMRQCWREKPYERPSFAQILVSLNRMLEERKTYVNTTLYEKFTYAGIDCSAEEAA
Aurora kinase A, sequence (O14965 whole entry): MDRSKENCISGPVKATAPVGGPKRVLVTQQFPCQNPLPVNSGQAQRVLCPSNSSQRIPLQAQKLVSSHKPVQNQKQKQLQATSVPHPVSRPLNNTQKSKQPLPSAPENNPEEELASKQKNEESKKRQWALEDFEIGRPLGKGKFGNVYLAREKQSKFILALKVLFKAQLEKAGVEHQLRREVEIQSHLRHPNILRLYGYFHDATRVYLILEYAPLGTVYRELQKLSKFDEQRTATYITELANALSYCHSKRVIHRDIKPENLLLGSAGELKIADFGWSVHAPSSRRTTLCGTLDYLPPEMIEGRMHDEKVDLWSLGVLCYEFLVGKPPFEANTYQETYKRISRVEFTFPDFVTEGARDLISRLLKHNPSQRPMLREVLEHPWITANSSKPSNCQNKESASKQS

CN1C(=O)COc2c1cnc1ccc(Sc3nnc4c(F)cc(-c5cnn(C)c5)cn34)cc21 [DALMELITINIB]
IC50 [1]: > 30 µM | IC50 [2]: > 30 µM | IC50 [3]: 0.006 µM | IC50 [4]: > 30 µM | IC50 [5]: > 30 µM | IC50 [6]: > 30 µM | IC50 [7]: > 30 µM | IC50 [8]: 8.69 µM | IC50 [9]: > 30 µM | IC50 [10]: > 30 µM | IC50 [11]: > 30 µM | IC50 [12]: > 30 µM | IC50 [13]: > 30 µM | IC50 [14]: > 30 µM | IC50 [15]: > 30 µM | IC50 [16]: > 30 µM | IC50 [17]: > 30 µM | IC50 [18]: > 30 µM | IC50 [19]: > 30 µM | IC50 [20]: > 10 µM | IC50 [21]: > 30 µM | IC50 [22]: > 30 µM | IC50 [23]: > 30 µM | IC50 [24]: 0.014 µM | IC50 [25]: 0.006 µM | IC50 [26]: > 30 µM | IC50 [27]: > 30 µM | IC50 [28]: 15.5 µM

Reference: ChEMBL document CHEMBL3817824, “Synthesis and biological evaluation of new [1,2,4]triazolo[4,3-a]pyridine derivatives as potential c-Met inhibitors” (Bioorg Med Chem, 2016)
